Series [1] relates to model of spinal trauma in the mouse. Put plainly: Beam balance test in a model of spinal trauma in the mouse. The class given is in vivo. To be noted: for Travel time (% motor function deficiency): 0.03 mg/kg po at +4 h and +6 h then daily; for Travel time (% motor function deficiency) / Travel time (% deficiency): 100% = trauma + carrier; for Travel time (% deficiency): 0.01 mg/kg po at +4 h then daily; for Balance beam test result (time to reach the opposite end of the beam): 0.01 mg/kg orally 4 h after lesion then daily, OF1 mice. The protocol:
The effects of 4-cyclopropylmethoxy-N-(3,5-dichloro-1-oxidopyridin-4-yl)-5-(methoxy)pyridine-2-carboxamide used according to the invention were evaluated in a model of spinal trauma in the mouse using the beam balance test (P. Barnéoud, NeuroReport 1997, 8, 2861-2865).
The Beam Balance test consists in placing the mouse at the end of a horizontal beam 30 cm long and 1.5 cm wide, raised 20 cm above the ground. The time required for the mouse to reach the opposite end of the beam is measured. The test is stopped after 12 seconds.
[…] female OF1 mice (Iffa Credo Lyon, France) weighing 12 to 14 g are placed in experimental cages (32×21×14 cm) provided with an endless supply of food and water, at the controlled temperature of 22±1° C.
The mice are subjected to a pre-learning phase which allows them to become familiar with the evaluation test and allows them to reach an optimal and identical level of performance.
The animals are subsequently divided up into three groups, and then a trauma is induced in a controlled manner in two of the three groups of mice before the beginning of the test phase.
This trauma consists of a lesion of the spinal cord located at the level of the thoracic vertebra Th8. The lesion is generated by 3 successive cycles of freezing-thawing by applying liquid nitrogen.
The functional consequences of the trauma are then measured at days 2, 7, 14 and 21 and also at day 28.
The following groups were formed: • Group 1 (no trauma) is composed of control animals which are not subjected to any trauma. • Group 2 (trauma alone) is composed of traumatized animals to which one dose per day of carrier (methyl-cellulose (MC) (0.6%) +tween-80 (0.5%) in water) is administered. • Group 3 (trauma+active ingredient 0.01 mg/kg at +4 hours) receives a solution containing 4-cyclopropylmethoxy-N-(3,5-dichloro-1-oxidopyridin-4-yl)-5-(methoxy)pyridine-2-carboxamide (0.01 mg/kg) in the carrier (MC (0.6%)+tween-80 (0.5%) in water), orally, 4 hours after the lesion, and then daily, orally, for 4 weeks after the trauma.
An experiment similar to that of Example 1 was carried out by administering ((4R)-4-[3-(cyclopentyloxy)-4-methoxyphenyl]pyrrolidine-2-one) to 34-week-old OF1 mice (Charles River, France) weighing 12 to 14 g, in the treatment of spinal cord traumas.
The mice were tested in the beam balance test, according to operating conditions identical to those described above.
The following groups were formed: • Group A (no trauma) is composed of control animals which are not subjected to any trauma. • Group B (trauma alone) is composed of traumatized animals to which one dose per day of carrier (2% PEG 200) is administered. • Group C (trauma+active ingredient 0.03 mg/kg at +4 hours) receives a solution containing (R)-(−)-Rolipram (0.03 mg/kg) in the carrier (2% PEG 200), orally, 4 hours and 6 hours after the lesion, and then daily, orally, for 4 weeks after the trauma.
The results obtained for each group of mice are expressed as percentage (%) deficiency of motor functions in the traumatized mice compared with the non-traumatized mice:
To do this, the difference in time taken between the group of mice tested to which (R)-(−)-Rolipram was administered (group C) and the group of non-traumatized mice (group A) is measured and expressed as a percentage relative to the difference in time taken between the traumatized mice to which one dose per day of carrier was administered (group B) and the time taken by the non-traumatized mice (group A). This ratio therefore gives the percentage deficiency in motor functions of the traumatized mice compared with the non-traumatized mice.
This calculation of the percentage deficiency of the mice tested is performed according to the following formula: % deficiency of group (c)=[(mean of the travel time of group C)−(mean of the travel time of group A)]/[(mean of the travel time of group B)−(mean of the travel time of group A)]

The subject of the next series is ferret. Kind of series: Evaluation of emetic effects in the ferret. The series is classed as in vivo. To be noted: observed up to 6 hours after administration; for Emetic effects (vomiting): ferrets. The protocol: The emetic capacity of 4-cyclopropylmethoxy-N-(3,5-dichloro-1-oxidopyridin-4-yl)-5-(methoxy)pyridine-2-carboxamide was evaluated in the ferret. Two groups of ferrets were used, the first being given the carrier (PEG 200) and the second being given 4-cyclopropyl-methoxy-N-(3,5-dichloro-1-oxidopyridin-4-yl)-5-(methoxy)pyridine-2-carboxamide in solution in the carrier (PEG 200), by oral gavage, at doses of 0.05 mg/kg and 0.1 mg/kg. The animals were observed continually for the 2 hours following administration and then every hour up to 6 hours after administration. The clinical signs (in particular retching and vomiting) were noted.
The emetic capacity of […] was evaluated in the ferret. Two groups of ferrets were used, the first receiving the carrier (PEG200) and the second receiving […] in solution in the carrier (PEG200), by oral gavage, at doses of 0.05 mg/kg and 0.1 mg/kg. The animals were observed continually for the 2 hours following administration and then every hour up to 6 hours after administration. The clinical signs were noted.

As to `COc1ccc([C@@H]2CNC(=O)C2)cc1OC1CCCC1` [(R)-(−)-Rolipram, ((4R)-4-[3-(cyclopentyloxy)-4-methoxyphenyl]pyrrolidine-2-one), reference compound], the “Travel time (% motor function deficiency)” value is given as 110% in series [1] (D + 2, 0% = no trauma); 67% in series [1] (D + 7, 0% = no trauma); 48% in series [1] (D + 14, 0% = no trauma); 122% in series [1] (D + 21, 0% = no trauma); 108% in series [1] (D + 28, 0% = no trauma); 91% in series [1] (Mean of D + 2 to D + 28). Also, the “Emetic effects (vomiting)” value with ferret (0.05 mg/kg by oral gavage in PEG200) and in the series with ferret (0.1 mg/kg by oral gavage in PEG200) was “induces vomiting” throughout.

Consider `COc1cnc(C(=O)Nc2c(Cl)c[n+]([O-])cc2Cl)cc1OCC1CC1` [4-cyclopropylmethoxy-N-(3,5-dichloro-1-oxidopyridin-4-yl)-5-(methoxy)pyridine-2-carboxamide], for which the “Degree of motor function deficiency compared with (R)-(−)-Rolipram” value in series [1] (0.01 mg/kg po versus (R)-(−)-Rolipram 0.03 mg/kg po, traumatized mice) was “less than that of the animals treated with (R)-(−)-Rolipram”. Besides, the “Travel time (% deficiency)” value is listed as 84% in series [1] (D + 2, 0% = no trauma); 72% in series [1] (D + 7, 0% = no trauma); 49% in series [1] (D + 14, 0% = no trauma); 60% in series [1] (D + 21, 0% = no trauma); 44% in series [1] (D + 28, 0% = no trauma); 62% in series [1] (Mean of D + 2 to D + 28). Also, the “Balance beam test result (time to reach the opposite end of the beam)” value came to 10.71 s in series [1] (D + 2 after trauma, test stopped after 12 seconds); 8.67 s in series [1] (D + 7 after trauma); 6.35 s in series [1] (D + 14 after trauma); 6.17 s in series [1] (D + 21 after trauma); 5.18 s in series [1] (D + 28 after trauma). In series [1] (traumatized mice, curative administration (group 3 vs group 2)), the “Re-establishment of motor functions versus non-treated traumatized animals” value was “better re-establishment in terms of motor functions”. The “Emetic effects (retching and vomiting)” value in the series on ferret (0.1 mg/kg by oral gavage in PEG 200, 5 ferrets) is “no retching or vomiting”.

For the origin of these results see patent US8592443B2, “Use of 4 cyclopropylmethoxy-N-(3,5 dichloro-1 oxido-pyridin-4 yl)-5-(methoxy)pyridine-2-carboxamide for the treatment of spinal cord traumas” (Sanofi, priority 2007, dated 2013).
